Test results published in patent US20110144022A1, “Anti-Angiogenic Peptide” (ISTITUTO NAZIONALE PER LA RICERCA SUL CANCRO, priority 2004, published 2011).

Columns and labels:
angiogenesis = assay: Matrigel sponge in vivo angiogenesis assay; set-up: species or system C57B1 mice; settings: for effect of anti IL-12 antibody on the anti-angiogenic activity: neutralizing anti mouse IL-12 antibody added to the matrigel mixture
Method: the assay was performed in C57B1 mice as described (3).
To verify whether IL-12 was a mediator of AST function, a neutralizing anti mouse IL-12 antibody (Peproteck Inc. London) and respectively an irrelevant anti phage 13 antibody (5 prime, 3 prime Inc. Boulder, Co. 150 ng/ml) were added to the mixture.
After animal sacrifice, pellets were fixed in 4% PAF and paraffin embedded; […] sections were stained with hematoxylin-eosin standard procedure.
FIG. 1-b: matrigel in vivo angiogenesis assay with AST. Columns show means and standard error of groups comprising six animals each. KS-conditioned medium (KSCM) is the stimulus (control).
FIG. 1-c: matrigel in vivo angiogenesis assay with peptides.
A combination of peptides and anti IL-12 Ab was added to the samples containing KSCM as indicated.
FIG. 2, a-h: standard ematoxylin-eosin staining of the matrigel pellets relative to experiments in FIG. 1-c.

KS-imm cells = assay: Xenotransplant of Kaposi sarcoma (KS-imm) tumor cells in nude mice; assay type: in vivo, CD1 nude mice; settings: single administration three days before cell injection
Method: CD1 nude mice were injected in the flank with 5 million KS-imm cells and split in four groups: one was injected peri-tumorally with 2.5 μg AST (Calbiochem, La Jolla, Calif.) in 100 μl PBS-BSA, a control group was injected with vehicle alone, a third group with 2.5 mg of peptide SEQ ID NO:1 or a control peptide. Mice were sacrificed at day 31.

polymorphonucleate (PMN) = assay: Neutrophil (PMN) chemotaxis assay with IL-8 as chemoattractant; assay type: cell-based; settings: CXCR1 and CXCR2-agonist and IL8 as chemoattractants
Method: The assay was conducted in 48 wells chambers (Costar Nucleopore, Milan, Italy) according to Falk (4). The lower compartment of each chamber was filled with 27 μL of chemoattractant (IL-8, 50 ng/ml) in RPMI 0.1% BSA (SFM). Serum-free medium (SFM) was used for spontaneous migration without stimulus. The upper compartment was filled with 50 μL of polymorphonucleate (PMN) suspension in SFM (3×10^6 cells/ml); each experimental point was performed in sextuplicate. Chambers were incubated at 37° C. in 5% CO2 in humidified atmosphere for 45 minutes. Filters were removed and the cells fixed in 100% ethanol and stained with toluidine blue. The migrated cells were quantified by scanning of the filter surface and by densitometry of blue staining by NIH Imaging Analysis Software.
FIG. 3: PMN chemotaxis. Densitometry of migrated cells. IL-8 represents the stimulus in each sample, to which either AST or relevant peptides are added.

HNRTPENFPCKNL (listed as Homo sapiens) [peptide SEQ ID NO:1, 13mer from Kringle 3 of angiostatin, starting from position 307 of human plasminogen]
anti-angiogenic activity in matrigel sponges (hemoglobin quantification) (angiogenesis; KS-conditioned medium (KSCM) as stimulus, compared with angiostatin): more active than angiostatin
angiogenesis inhibition by hematoxylin-eosin stain of matrigel pellets (angiogenesis; histology of matrigel sponges): potent angiogensis inhibition
local cellular infiltration in matrigel pellets (angiogenesis; histology of matrigel sponges): drastically reduced
effect of anti IL-12 antibody on the anti-angiogenic activity (angiogenesis): inhibited by and antibody anti IL-12
tumor growth (KS-imm cells): able to diminish tumor growth with respect to angiostatin
activity in neutrophil chemotaxis assay (inhibition of migration) (polymorphonucleate (PMN)): significantly higher compared to other angiostatin peptides

angiostatin
effect of anti IL-12 antibody on the anti-angiogenic activity (angiogenesis): inhibited by and antibody anti IL-12
